Test results taken from the NIST ThermoML archive (doi:10.1021/acs.jced.6b00168).

Assay: mn = molality of the nth substance listed, in mol/kg
Details: 100 kPa, Liquid; for speed of sound: Frequency=3 MHz, Sing-around technique in a fixed-path interferometer; for mass density: Vibrating tube method

CC(C)C[C@H](N)C(=O)O [L-leucine] + O
Details	mass density, 288.15 K [kg/m3]	mass density, 298.15 K [kg/m3]	mass density, 308.15 K [kg/m3]	mass density, 318.15 K [kg/m3]	speed of sound, 288.15 K [m/s]	speed of sound, 298.15 K [m/s]	speed of sound, 308.15 K [m/s]	speed of sound, 318.15 K [m/s]
m1 = 0.00991	999.363	997.29	994.279	990.433	1468	1497	1520.5	1537
m1 = 0.02042	999.615	997.535	994.535	990.663	1469.3	1498.2	1521.5	1538
m1 = 0.04026	1000.09	998.005	994.994	991.098	1471.8	1500.4	1523.5	1539.8
m1 = 0.06014	1000.6	998.476	995.441	991.533	1474.2	1502.6	1525.5	1541.7
m1 = 0.0802	1001.07	998.929	995.893	991.972	1476.7	1504.9	1527.5	1543.5
m1 = 0.1002	1001.57	999.402	996.345	992.41	1479.2	1507.1	1529.5	1545.3
m1 = 0.1246	1002.13	999.979	996.896	992.945	1482.3	1509.8	1532	1547.6
m1 = 0.1502	1002.71	1000.56	997.446	993.506	1485.5	1512.7	1534.6	1550

CC(C)C[C@H](NC(=O)CN)C(=O)O [glycyl-L-leucine] + O
Details	mass density, 288.15 K [kg/m3]	mass density, 298.15 K [kg/m3]	mass density, 308.15 K [kg/m3]	mass density, 318.15 K [kg/m3]	speed of sound, 288.15 K [m/s]	speed of sound, 298.15 K [m/s]	speed of sound, 308.15 K [m/s]	speed of sound, 318.15 K [m/s]
m1 = 0.01036	999.623	997.544	994.554	990.713	1468.4	1497.4	1521	1537.6
m1 = 0.02041	1000.14	998.07	995.045	991.171	1470.1	1499	1522.6	1539.1
m1 = 0.04005	1001.13	999.05	995.995	992.11	1473.3	1502	1525.5	1542
m1 = 0.06009	1002.13	999.995	996.94	993.02	1476.6	1505.2	1528.5	1544.9
m1 = 0.08023	1003.08	1000.95	997.866	993.927	1479.9	1508.3	1531.5	1547.9
m1 = 0.09965	1004.02	1001.9	998.802	994.85	1483.1	1511.3	1534.4	1550.7
m1 = 0.1502	1006.4	1004.28	1001.19	997.236	1491.4	1519.2	1542	1558.2
m1 = 0.2014	1008.79	1006.66	1003.57	999.61	1499.8	1527.1	1549.7	1565.7
